# Laboratory results published in publication PMC11631053, “A receptor-based assay to study the sweet and bitter tastes of sweeteners and binary sweet blends: the SWEET project” (Chemical Senses, 2024).
# Marks after values point to notes of the source that are not given here.
# T1: TAS1R2/TAS1R3 (Homo sapiens, UniProt Q7RTX0+Q8TE23)
# T1 sequence (Q8TE23 20-839): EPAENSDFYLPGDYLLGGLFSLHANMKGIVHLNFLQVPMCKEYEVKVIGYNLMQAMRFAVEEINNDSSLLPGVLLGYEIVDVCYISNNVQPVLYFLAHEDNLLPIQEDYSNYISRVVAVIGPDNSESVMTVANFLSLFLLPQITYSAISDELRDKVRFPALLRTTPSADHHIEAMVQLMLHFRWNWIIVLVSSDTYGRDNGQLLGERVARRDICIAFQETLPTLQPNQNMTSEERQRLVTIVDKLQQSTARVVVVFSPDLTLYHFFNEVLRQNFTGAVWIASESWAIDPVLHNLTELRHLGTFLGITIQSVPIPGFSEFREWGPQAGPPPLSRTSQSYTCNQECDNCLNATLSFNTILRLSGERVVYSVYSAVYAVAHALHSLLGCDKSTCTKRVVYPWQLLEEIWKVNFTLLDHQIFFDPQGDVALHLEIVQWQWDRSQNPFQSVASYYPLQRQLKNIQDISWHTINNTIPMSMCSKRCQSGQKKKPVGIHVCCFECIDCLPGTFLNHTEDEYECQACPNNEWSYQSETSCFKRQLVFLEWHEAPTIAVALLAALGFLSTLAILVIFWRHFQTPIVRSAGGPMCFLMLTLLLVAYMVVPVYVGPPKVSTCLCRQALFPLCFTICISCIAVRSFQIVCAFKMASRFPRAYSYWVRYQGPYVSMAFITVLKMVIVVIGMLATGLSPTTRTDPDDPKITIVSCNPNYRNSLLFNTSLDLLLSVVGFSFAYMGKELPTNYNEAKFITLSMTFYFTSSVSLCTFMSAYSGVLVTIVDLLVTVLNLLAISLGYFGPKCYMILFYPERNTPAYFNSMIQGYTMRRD
# T1 sequence (Q7RTX0 21-852): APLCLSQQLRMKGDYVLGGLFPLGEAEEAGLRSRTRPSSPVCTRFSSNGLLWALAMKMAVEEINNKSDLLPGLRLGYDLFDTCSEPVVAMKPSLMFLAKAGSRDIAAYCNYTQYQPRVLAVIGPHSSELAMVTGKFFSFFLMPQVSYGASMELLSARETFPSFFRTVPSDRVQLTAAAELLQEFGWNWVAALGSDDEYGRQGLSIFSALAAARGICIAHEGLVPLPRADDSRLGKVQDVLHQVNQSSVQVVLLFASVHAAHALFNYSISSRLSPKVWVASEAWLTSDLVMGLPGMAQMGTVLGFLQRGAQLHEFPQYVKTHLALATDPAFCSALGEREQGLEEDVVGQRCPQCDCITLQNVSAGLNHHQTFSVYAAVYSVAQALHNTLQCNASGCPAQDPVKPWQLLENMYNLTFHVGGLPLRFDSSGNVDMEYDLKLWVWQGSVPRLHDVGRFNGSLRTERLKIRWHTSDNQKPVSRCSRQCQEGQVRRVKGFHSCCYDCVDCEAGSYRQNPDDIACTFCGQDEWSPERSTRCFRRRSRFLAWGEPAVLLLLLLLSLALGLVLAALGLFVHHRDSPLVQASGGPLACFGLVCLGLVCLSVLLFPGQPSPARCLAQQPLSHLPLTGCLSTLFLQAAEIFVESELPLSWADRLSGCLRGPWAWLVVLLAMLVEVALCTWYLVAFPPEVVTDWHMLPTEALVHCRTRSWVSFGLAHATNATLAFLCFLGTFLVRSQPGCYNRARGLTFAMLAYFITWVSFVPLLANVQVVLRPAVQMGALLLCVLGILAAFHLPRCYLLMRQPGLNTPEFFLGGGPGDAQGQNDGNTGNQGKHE
# B1: thaumatin (protein)
# chain: ATFEIVNRCSYTVWAAASKGDAALDAGGRQLNSGESWTINVEPGTNGGKIWARTDCYFDDSGSGICKTGDCGGLLRCKRFGRPPTTLAEFSLNQYGKDYIDISNIKGFNVPMDFSPTTRGCRGVRCAADIVGQCPAKLKAPGGGCNDACTVFQTSEYCCTTGKCGPTEYSRFFKRLCPDAFSYVLDKPTTVTCPGSSNYRVTFCPTA
# modifications: 8 disulfide bonds; natural (E957) thaumatin is a mixture of mainly thaumatin I and II
# Experiments:
# [1] = tested on: TAS2R8; settings: ref Meyerhof et al. 2010; cited from earlier work
# [2] = tested on: TAS2R1; settings: ref Meyerhof et al. 2010; cited from earlier work
# [3] = sucrose = 1; ref Schiffman and Gatlin (1993); cited from earlier work
# [4] = target: T1, TAS1R2/TAS1R3; test: Calcium mobilization assay, HEK293T-Gα16gust44 cells expressing the sweet taste receptor; settings: sweet compound alone
# Method: Different concentration ranges were tested depending on the injected sweet compound. […] All of the concentration-receptor combinations were measured in triplicate, and each experiment was repeated at least 3 times. The Ca^2+ change was expressed as a fractional change in fluorescent light intensity: ΔF/F = (F − F0)/F0, where F was the fluorescent light intensity at each point, and F0 was the value of fluorescent light emitted prior to stimulus application. To calculate dose–response relationships, the changes in fluorescence upon stimulus application were averaged, mock-subtracted and baseline-corrected. The resulting obtained dose–response data were adjusted by using a 4-parameter logistic equation.
molecule,measurement,setting,value
O=S(=O)(O)NC1CCCCC1 [cyclamate],concentration at which activation of TAS2R8 occurs,[1],approximately 30 mM
same,concentration at which activation of TAS2R1 occurs,[2],approximately 30 mM
"OC[C@H]1O[C@@](CO)(O[C@H]2O[C@H](CO)[C@@H](O)[C@H](O)[C@H]2O)[C@@H](O)[C@@H]1O [Sucrose, reference compound]",Sweetness potency,[3],1^g
same,Max ΔF/F0,[4]; maximal signal amplitude,0.10 ± 0.03
B1,EC50,[4]; read-out: EC50 value,12 ± 2 µM
